SMILES strings stand for the structures. The source made the active and inactive calls. No cut-off for these calls is given here.

The text below walks through data of ChEMBL document CHEMBL6153048, “Synthesis and pharmacological evaluation of natural product diphyllin derivatives against head and neck squamous cell carcinoma” (Eur J Med Chem, 2025).

One data set concerns A549. As to the kind of experiment: Cytotoxicity against human A549 cells incubated for 72 hrs by MTT assay. The note with it: A549, 72 h. In kind it is functional, cell-based.
Data set [1] relates to CAL-27. As to the kind of experiment: Induction of apoptosis in human CAL-27 cells assessed as viable cells at 1 nM incubated for 72 hrs by Annexin V-FITC/propidium iodide staining based flow cytometry analysis (reference value: 90.41%). The class given is functional. The note with it: read-out: Activity. On the technique in general: In flow cytometry, cells or beads pass a laser one at a time.

Data set [2] relates to CAL-27. Description: Antiproliferative activity against human CAL-27 cells assessed as inhibition of cell communities at 1 uM treated for 11 days by plate clone formation assay. The class given is functional, cell-based. The conditions noted are these: time 11.0 day.
Data set [3] concerns CAL-27. As to the kind of experiment: Induction of cell cycle arrest in human CAL-27 cells assessed as accumulation of cells at G1 phase at 1 to 1000 nM incubated for 48 hrs by flow cytometry analysis (Rvb= 58.6%). The class given is functional. The conditions noted are these: dose 1-1000 nM.
The test system of data set [4] is CAL-27. Description: Induction of cell cycle arrest in human CAL-27 cells assessed as accumulation of cells at S phase at 1 to 1000 nM incubated for 48 hrs by flow cytometry analysis (Rvb=18%). The class given is functional. The conditions noted are these: dose 1-1000 nM.
The subject of data set [5] is CAL-27. Description: Induction of apoptosis in human CAL-27 cells assessed as early apoptotic cells at 1 nM incubated for 72 hrs by Annexin V-FITC/propidium iodide staining based flow cytometry analysis (reference value: 7.74%). In kind it is functional.
The subject of data set [6] is CAL-27. Description: Induction of apoptosis in human CAL-27 cells assessed as late apoptotic cells at 1 nM incubated for 72 hrs by Annexin V-FITC/propidium iodide staining based flow cytometry analysis (reference value: 1.82%). In kind it is functional.
Data set [7] has as its system CAL-27. As to the kind of experiment: Induction of apoptosis in human CAL-27 cells assessed as viable cells at 10 nM incubated for 72 hrs by Annexin V-FITC/propidium iodide staining based flow cytometry analysis (reference value: 90.41%). The note with it: read-out: Activity. In kind it is functional.
The test system of data set [8] is CAL-27. As to the kind of experiment: Induction of apoptosis in human CAL-27 cells assessed as early apoptotic cells at 10 nM incubated for 72 hrs by Annexin V-FITC/propidium iodide staining based flow cytometry analysis (reference value: 7.74%). The class given is functional.
Data set [9] relates to CAL-27. Description: Induction of apoptosis in human CAL-27 cells assessed as late apoptotic cells at 10 nM incubated for 72 hrs by Annexin V-FITC/propidium iodide staining based flow cytometry analysis (reference value: 1.82%). The class given is functional.
The subject of data set [10] is CAL-27. Description: Induction of apoptosis in human CAL-27 cells assessed as viable cells at 100 nM incubated for 72 hrs by Annexin V-FITC/propidium iodide staining based flow cytometry analysis (reference value: 90.41%). The class given is functional. The conditions noted are these: read-out: Activity.
Data set [11] relates to CAL-27. As to the kind of experiment: Induction of apoptosis in human CAL-27 cells assessed as late apoptotic cells at 100 nM incubated for 72 hrs by Annexin V-FITC/propidium iodide staining based flow cytometry analysis (reference value: 1.82%). The class given is functional.
Data set [12] relates to CAL-27. Description: Induction of apoptosis in human CAL-27 cells assessed as apoptotic cells at 1 nM incubated for 72 hrs by Annexin V-FITC/propidium iodide staining based flow cytometry analysis (reference value: 10.29%). The class given is functional.
The subject of data set [13] is CAL-27. As to the kind of experiment: Induction of apoptosis in human CAL-27 cells assessed as apoptotic cells at 10 nM incubated for 72 hrs by Annexin V-FITC/propidium iodide staining based flow cytometry analysis (reference value: 10.29%). The class given is functional.
The subject of data set [14] is CAL-27. Description: Induction of apoptosis in human CAL-27 cells assessed as apoptotic cells at 100 nM incubated for 72 hrs by Annexin V-FITC/propidium iodide staining based flow cytometry analysis (reference value: 10.29%). In kind it is functional.
Data set [15] has as its system CAL-27. Description: Induction of apoptosis in human CAL-27 cells assessed as viable cells at 1000 nM incubated for 72 hrs by Annexin V-FITC/propidium iodide staining based flow cytometry analysis (reference value: 90.41%). The note with it: read-out: Activity. In kind it is functional.
For data set [16], the system named is CAL-27. Description: Induction of apoptosis in human CAL-27 cells assessed as late apoptotic cells at 1000 nM incubated for 72 hrs by Annexin V-FITC/propidium iodide staining based flow cytometry analysis (reference value: 1.82%). The class given is functional.
Data set [17] concerns CAL-27. Description: Effect on epithelial cell proliferation in human CAL-27 cells assessed as regulation of cell proliferation related gene expression at 1 nM incubated for 48 hrs by GO analysis. The class given is functional, cell-based.
Data set [18] relates to CAL-27. As to the kind of experiment: Effect on cell growth factor in human CAL-27 cells assessed as regulation of cell growth factor related gene expression at 1 nM incubated for 48 hrs by GO analysis. The class given is functional, cell-based.
The subject of data set [19] is CAL-27. As to the kind of experiment: Effect on apoptosis in human CAL-27 cells assessed as regulation of gene expression at 1 nM incubated for 48 hrs by GSEA analysis. In kind it is functional, cell-based.
The subject of data set [20] is CAL-27. Description: Antitumor activity against human CAL-27 cells xenografted in BALB/c mouse model assessed as tumor volume change at 0.3 mg/kg, iv treated four times a week for 30 days. The class given is functional. The note with it: CAL-27, 720 h, time 30 day, read-out: TGI. For orientation: A xenograft is tissue or cells of one species grown in another, often human tumour cells in immunodeficient mice.

Data set [21] can be described thus: Toxicity in BALB/c mouse xenografted with human CAL-27 cells assessed as body weight at 0.3 mg/kg, iv treated four times a week for 30 days. In kind it is organism-based. The note with it: in vivo, 720 h, time 30 day.
Data set [22] has as its system CAL-27. Description: Antitumor activity against human CAL-27 cells xenografted in BALB/c mouse model assessed as reduction in tumor weight at 0.3 mg/kg, iv treated four times a week for 30 days. In kind it is functional. Set-up: scale not given: the % may be the effect or the level left. The conditions noted are these: time 30 day.
Data set [23] deals with CAL-27. Description: Antitumor activity against human CAL-27 cells xenografted in BALB/c mouse model assessed as reduction in reduction in Ki-67 expression at 0.6 mg/kg, iv treated four times a week for 30 days by immunohistochemical staining analysis. The class given is functional, organism-based. The note with it: time 30.0 day.
Data set [24] relates to CAL-27. Description: Antitumor activity against human CAL-27 cells xenografted in BALB/c mouse model assessed as reduction in nuclear division at 0.6 mg/kg, iv treated four times a week for 30 days by HE staining analysis. In kind it is functional, organism-based. The conditions noted are these: time 30.0 day.
The subject of data set [25] is CAL-27. As to the kind of experiment: Antitumor activity against human CAL-27 cells xenografted in BALB/c mouse model assessed as cancer cell death at 0.6 mg/kg, iv treated four times a week for 30 days by HE staining analysis. The class given is functional, organism-based. The conditions noted are these: time 30.0 day.
In data set [26] the test system is CAL-27. As to the kind of experiment: Induction of apoptosis in human CAL-27 cells assessed as viable cells at 1 nM incubated for 72 hrs by Annexin V-FITC/propidium iodide staining based flow cytometry analysis (reference value: 88.23%). The class given is functional. The conditions noted are these: read-out: Activity.
Data set [27] relates to CAL-27. Description: Induction of apoptosis in human CAL-27 cells assessed as early apoptotic cells at 1 nM incubated for 72 hrs by Annexin V-FITC/propidium iodide staining based flow cytometry analysis (reference value: 9.16%). The class given is functional.
Data set [28] concerns CAL-27. Description: Induction of apoptosis in human CAL-27 cells assessed as viable cells at 10 nM incubated for 72 hrs by Annexin V-FITC/propidium iodide staining based flow cytometry analysis (reference value: 88.23%). The conditions noted are these: read-out: Activity. In kind it is functional.
Data set [29] concerns CAL-27. As to the kind of experiment: Induction of apoptosis in human CAL-27 cells assessed as viable cells at 100 nM incubated for 72 hrs by Annexin V-FITC/propidium iodide staining based flow cytometry analysis (reference value: 88.23%). The conditions noted are these: read-out: Activity. In kind it is functional.
For data set [30], the system named is CAL-27. Description: Induction of apoptosis in human CAL-27 cells assessed as late apoptotic cells at 100 nM incubated for 72 hrs by Annexin V-FITC/propidium iodide staining based flow cytometry analysis (reference value: 2.57%). In kind it is functional.
For data set [31], the system named is CAL-27. Description: Induction of apoptosis in human CAL-27 cells assessed as viable cells at 1000 nM incubated for 72 hrs by Annexin V-FITC/propidium iodide staining based flow cytometry analysis (reference value: 88.23%). The class given is functional. The note with it: read-out: Activity.
Data set [32] deals with CAL-27. As to the kind of experiment: Induction of apoptosis in human CAL-27 cells assessed as late apoptotic cells at 1000 nM incubated for 72 hrs by Annexin V-FITC/propidium iodide staining based flow cytometry analysis (reference value: 2.57%). In kind it is functional.

The IC50 is the concentration needed to halve the response being measured. `COc1cc2c(O[C@@H]3O[C@@H]4CO[C@@H](c5ccsc5)O[C@H]4[C@H](O)[C@H]3O)c3c(c(-c4ccc5c(c4)OCO5)c2cc1OC)C(=O)OC3` returned an IC50 with A549 of 117 nM. Moreover, the viability at 0.001 µM in the data set on CAL-27 [1] is 93%. In addition, the Activity result with CAL-27 [2] is listed as “Active; Showed More Potent Suppression”; in the data set on CAL-27 [3], 78.7%; with CAL-27 [4] it was 6%; in the data set with CAL-27 [5], 4.74%; with CAL-27 [6], 2.19%; in the data set with CAL-27 [8], 16.27%. Also, the Activity in the data set with CAL-27 [9] was determined as 25.74%; in the data set with CAL-27 [11], 41.19%; in the data set on CAL-27 [12], 15.78%; with CAL-27 [13], 41.84%; with CAL-27 [14], 50.9%; in the data set on CAL-27 [16], 36.94%. The figures for the Activity entry (in [21]; with CAL-27 [22]) were “Non-toxic” and 34%, respectively. Also, in the data set on CAL-27 [7], the viability at 0.01 µM amounted to 55%. In addition, the viability at 0.1 µM in the data set on CAL-27 [10] is 28.6%. The viability at 1 µM with CAL-27 [15] came to 28.1%. Further, the outcome with CAL-27 [17], in the data set on CAL-27 [18], in the data set with CAL-27 [19], in the data set with CAL-27 [23], in the data set with CAL-27 [24] and in the data set with CAL-27 [25] was Active. Moreover, the inhibition in vivo at 0.3 mg/kg with CAL-27 [20] was determined as 29.2%.
As for `COc1cc2c(O)c3c(c(-c4ccc5c(c4)OCO5)c2cc1OC)C(=O)OC3` [DIPHYLLIN], the viability at 0.001 µM with CAL-27 [26] came out at 91.4%. For the same molecule, the results for the Activity in the data set with CAL-27 [27], in the data set with CAL-27 [30] and in the data set on CAL-27 [32] were 2.68%, 2.58% and 5.03%, respectively. Moreover, the viability at 0.01 µM in the data set on CAL-27 [28] is 94.8%. For the same molecule, the viability at 0.1 µM in the data set with CAL-27 [29] worked out at 92.5%. Further, in the data set on CAL-27 [31], the viability at 1 µM came to 82.8%.
